This is an account of results in patent US20260028390A1, “ALPHA1-ANTITRYPSIN FOR USE IN THE TREATMENT OF DISEASES OR DISORDERS OF THE NERVOUS SYSTEM SUCH AS CHRONIC INFLAMMATORY DEMYELINATING POLYNEUROPATHY” (Ageronix SA, priority 2022, published 2026).

Values joined by “and” are separate entries in the source; they are usually repeats but may differ in a detail not shown here. Identical values can stand only once.

For one assay, the system named is CIDP mice. Briefly: Rotarod test, CIDP mouse model. The class given is in vivo. Particulars: for Rotarod latency (Mean ± SEM): CIDP mice; for Rotarod latency, group Mean: group mean of 4 animals; for Rotarod latency, Mean/animal: per animal; for Rotarod latency, Mean/animal / Rotarod latency, set 1 / Rotarod latency, set 2 / Rotarod latency, set 3: listed as hAAT; for Rotarod latency, set 1 / Rotarod latency, set 2 / Rotarod latency, set 3: raw data per animal. As to the method:
C57BL/6 mice were received at 8 weeks of age and housed under controlled conditions for the duration of the study. Three groups of 4 animals each were assigned to the following subcutaneous treatments twice daily at 7:00 AM and 7:00 PM for 2 weeks, from 20 to 35 days after the start of disease induction: • Wild type (WT) mice receiving the vehicle, 0.9% NaCl (positive control) • CIDP mice receiving the vehicle, 0.9% NaCl (negative control) • CIDP mice receiving human AAT (AAT), 50 mg/kg per injection
Disease induction consisted in subcutaneous injection of mouse sciatic nerve homogenate in phosphate buffer saline (PBS)+Freund's adjuvant mixture at 10 mL/kg. For each treatment, 3 different body sites injections were performed. Control mice also received three subcutaneous injections of PBS+Freund's adjuvant at the same 3 different body sites.
On the first (Day 20) and last (Day 35) day of treatment, the neuromuscular and performance of animals was tested with a rotarod test, grip test and a sensory test using the Von Frey filament test, as well as sciatic nerve electrophysiology test. After the last treatment at Day 35, these tests were repeated, animals were sacrificed and the left sciatic nerve was sampled for histological evaluation of the number and size of […].
A general note: Falling from the rotarod earlier than controls is read as motor impairment.

The next assay relates to HMC3-MHCII^Luc cells. Briefly: IFNγ-mediated microglial activation, MHCII-driven luciferase activity. The class given is cell-based, human. The conditions noted are these: IFNγ 10 ng/ml; AATs 1, 10 or 25 μM day 0 to day 4. The protocol:
• A) Human microglial cells HMC3-MHCII^Luc cells were plated at day 0, activated with IFNγ at day1 until day 2 and measurement of the luciferase activity and cell viability were done at day 4. • B) Activation was measured by the activity of MHCII-driven luciferase and normalized to cell viability. Luciferase activity for all conditions is represented as fold of the untreated control. A potential effect of the highest concentration of the buffer used for drug presentation (IFNγ, AATs) was precluded. All conditions were performed in triplicates, error bars represent standard deviation (FIGS. 1A and 1B).
• A) Human microglial HMC3-MHCII^Luc and HMC3MHCII^Luc; Ubi^AAT cells were plated at day 0, presented IFNγ at day 1 until day 2 and measurement of the luciferase activity and cell viability were done at day 4. • B) AATs were applied from day 0 to day 4 on HMC3-MHCII^Luc cells. Activation was measured by the activity of MHCII-driven luciferase and normalized to cell viability. […]
• A) Human microglial HMC3-MHCII^Luc cells were plated at day 0, presented IFNγ at day 1 until day 2 and measurement of the luciferase activity and cell viability were done at day 4. • B) AATs were applied from day 0 to day 4 on HMC3-MHCII^Luc cells. Activation was measured by the activity of MHCII-driven luciferase and represented as percentage of IFNγ control for all conditions. […]

On to alpha1-antitrypsin (AAT) protein, for which, in the assay with CIDP mice (CIDP + AAT 50 mg/kg sc twice daily, Day 35), the “rotarod latency compared to the vehicle treated group” value was “increase”. Besides, the “Rotarod latency (Mean ± SEM)” value in the assay on CIDP mice (Day 20 (baseline, first treatment day)) amounted to 25.96 ± 6.16 s. In addition, in the assay with CIDP mice (Day 35, AAT 50 mg/kg sc twice daily), the “Rotarod latency (Mean ± SEM)” value came out at 34.96 ± 9.47 s. Moreover, in the assay with CIDP mice (Baseline (Day 20)), the “Rotarod latency, group Mean” value was found to be 25.96 s; the “Rotarod latency, Mean/animal” value is 17.68 s and 29.19 s and 31.82 s and 25.13 s; the “Rotarod latency, set 1” value was 19.1 s and 28.0 s and 28.7 s and 24.1 s; the “Rotarod latency, set 2” value is 17.7 s and 26.7 s and 33.0 s and 24.0 s. Further, the “Rotarod latency, set 3” value with CIDP mice (Baseline (Day 20)) is 16.2 s and 32.9 s and 33.8 s and 27.3 s. In the assay on CIDP mice (Day 35), the “Rotarod latency, group Mean” value was determined as 34.96 s; the “Rotarod latency, Mean/animal” value was 38.90 s and 36.28 s and 43.23 s and 21.41 s; the “Rotarod latency, set 1” value is 32.02 s and 44.79 s and 52.44 s and 37.74 s; the “Rotarod latency, set 2” value was 36.34 s and 31.48 s and 34.61 s and 19.21 s. For the same substance, the “Rotarod latency, set 3” value with CIDP mice (Day 35) was 48.35 s and 32.56 s and 42.63 s and 7.29 s. Moreover, in the assay with HMC3-MHCII^Luc cells, the “IFNγ-mediated microglial activation (MHCII-driven luciferase activity)” value is “decreases”.
